Each compound was assayed on P. falciparum 3D7 growth, pLDH absorbance (assay: blood-stage malaria parasite growth potency – strain 3D7, dose response (AID 2305)).
With Cc1ccc(NS(=O)(=O)c2cccs2)cc1-c1cccc(C(=O)Nc2ccc(F)cc2)c1 the IC50 was 0.65 µM.
N#Cc1ccc2nc(-c3ccccc3)[nH]c2c1 showed an IC50 of 0.7 µM.
Cc1cccc2[nH]c(-c3ccc(-c4ccc(CN5CCOCC5)cc4)cc3)nc12 was tested, and the IC50 was 0.82 µM.
Compound CCOC(=O)C(=CNc1ccc(Cc2cnc(N)nc2N)cc1CC)C(=O)OCC has an IC50 of 1.14 µM.
Fc1ccc(Nc2n[nH]c(CNC3CCN(Cc4ccc(Cl)c(Cl)c4)CC3)n2)cc1 gave an IC50 of 1.38 µM.
COc1ccc(-c2cnc(N)c(-c3ccc(O)c(OC)c3)c2)cn1 gave an IC50 of 0.88 µM.
Compound O=C(NCCCCN1CCC(c2c[nH]c3ccc(-c4ccccc4)cc23)CC1)c1ccc(-c2ccccc2)cc1 has an IC50 of 0.99 µM.
Compound COc1ccc(/C=C/C(=O)Nc2ccc(-c3ccncc3)cc2)cc1CCCN(C)C has an IC50 of 0.75 µM.
COc1cc(C(=O)N2CCOC(CCN3CC[C@@H]4c5ccccc5C[C@@H]43)(c3ccc(Cl)c(Cl)c3)C2)cc(OC)c1OC (some centres undefined) gave an IC50 of 0.53 µM.
CN(C)c1ccc(NC(=O)Nc2ccnc3ccc(Br)cc23)cc1 gave an IC50 of 0.87 µM.
For Cc1cc2c(cc1Cl)N(C(=O)Nc1cc(F)cc(-c3cncnc3)c1)CC2, the IC50 was 0.38 µM.
With O=C(C=Cc1ccc(Cl)c(Cl)c1)NCCCCCN1CCCC(CCCNC(=O)c2ccc3c(c2)OCO3)C1 (centres undefined) the IC50 was 1.22 µM.
For O=C(NCCNc1nc(NCCNC(=O)Nc2ccccc2)c2ccc(=O)n(-c3c(F)cccc3F)c2n1)Nc1ccccc1, the IC50 was 0.17 µM.
Work on CCCNc1ccc2nccc(CCN3CCC(NCc4ccc5c(n4)NC(=O)CS5)CC3)c2n1 yielded an IC50 of 0.72 µM.
With O=C(Nc1ccccc1)N(Cc1ccc(-c2ccc(CNC3CCCC3)cc2)cc1)C1CCN(Cc2ccccc2)CC1 the IC50 was 0.41 µM.
Compound CCn1c(Sc2ccc(C#N)c([N+](=O)[O-])c2)nnc1-c1ccc(Cl)cc1 has an IC50 of 0.55 µM.
Compound c1ccc2[nH]c(-c3ccc(-c4ccc(CN5CCCCC5)cc4)s3)nc2c1 has an IC50 of 0.74 µM.
With Nc1c2c(nc3ccc(NC(=O)c4ccc([N+](=O)[O-])cc4)cc13)CCCC2 the IC50 was 0.24 µM.
O=C(NCCCCN1CCN(c2cccc3c2CCCC3)CC1)c1ccc(NC(=O)c2ccc(Cl)cc2)cc1 was tested, and the IC50 was 0.45 µM.
Compound Cc1ccc(-c2ccc(NC(=O)N3CCc4cc(Br)c(N5CCN(C)CC5)cc43)cc2)cn1 has an IC50 of 1.35 µM.
COc1cc(C)nc2ccc(NC(=O)c3ccc(C(=O)Nc4ccc5nc(C)cc(OC)c5c4)cc3)cc12 was tested, and the IC50 was 0.06 µM.
Compound CNc1ccc(CNCc2cccc(-c3ccc(-c4nc5c(C)cccc5[nH]4)cc3)c2)cc1 has an IC50 of 0.66 µM.
With COc1cc(C(=O)N2CCOC(CCN3CCC(c4ccc(Cl)cc4)CC3)(c3ccc(Cl)c(Cl)c3)C2)cc(OC)c1OC (centres undefined) the IC50 was 0.18 µM.
For O=C(/C=C/c1ccc(C(F)(F)F)cc1)NCCCCCN1CCCN(C(=O)Nc2ccc(Cl)c(Cl)c2)CC1, the IC50 was 0.42 µM.
N#Cc1ccc(-c2ccc(OCC(O)CN3CCCN(C(=O)C(c4ccc5c(c4)OCO5)N4CCN(C/C=C/c5ccccc5)CC4)CC3)cc2)cc1 (centres undefined) showed an IC50 of 0.65 µM.
Work on CCC(=O)Oc1ccc(NC(=O)c2cccc(OC)c2)cc1 yielded an IC50 of 0.77 µM.
In the case of Cc1cccc2[nH]c(-c3cccc(-c4cccc(CNCc5cnn(-c6ccccc6)n5)c4)c3)nc12, the IC50 is reported as 0.66 µM.
With CCN1CC=C(c2c[nH]c3ccccc23)CC1 the IC50 was 1.03 µM.
COc1ccc2ncc(F)c(CCN3C[C@H](CNCc4ccc5c(n4)NC(=O)CS5)[C@H](O)C3)c2c1 gave an IC50 of 0.78 µM.
In the case of CC(C)(C)c1ccc(NC(=O)c2cccc(CN3CCCN(Cc4ccc(F)cc4)CC3)c2)cc1, the IC50 is reported as 0.99 µM.
For CCN(CC)CCCNc1nccc(N2CCc3ncnc(Nc4ccc(OCc5cccc(F)c5)c(Cl)c4)c3C2)n1, the IC50 was 0.11 µM.
In the case of COc1cc(Cc2cnc(NCCN3CCNCC3)nc2N)ccc1OCc1ccc(C(F)(F)F)cc1, the IC50 is reported as 0.92 µM.
C[C@]12CC3CC(Nc4nc(N5CCOCC5)nc5ccccc45)(C1)C[C@@](C)(C3)C2 showed an IC50 of 0.94 µM.
In the case of COc1cc(CNc2ccc(N3CCCC3)cc2)cc(Cl)c1OC, the IC50 is reported as 0.7 µM.
With CCCCOc1ccc(N2C(N)=NC(N)=NC2(C)C)cc1 the IC50 was 0.21 µM.
Work on O=C(Nc1ccon1)c1cc(-c2cccnc2)nc2ccc(Cl)cc12 yielded an IC50 of 0.79 µM.
With CC(O)C1CCCCN1C(=O)c1cccc(-c2cccc(-c3nc4ccc(F)cc4[nH]3)c2)c1 (centres undefined) the IC50 was 0.54 µM.
CCCCCCCNCc1c(O)ccc2c(CNCCCCCCC)c(O)ccc12 showed an IC50 of 0.15 µM.
Work on Cc1cc(N2CCC(NS(=O)(=O)c3ccccc3)CC2)nc(Nc2cccc(C#N)c2)n1 yielded an IC50 of 1.35 µM.
With Cc1onc(-c2ccccc2Cl)c1C(=O)Nc1cc(Cl)c(Cl)cc1Cl the IC50 was 1.18 µM.
c1cc(CNCCc2ccncc2)cc(-c2ccc(-c3nc4ccccc4[nH]3)s2)c1 showed an IC50 of 0.34 µM.
CCCc1cc(Cc2cnc(N)nc2N)cc(CCC)c1OCCCCC(=O)OCC was tested, and the IC50 was 0.05 µM.
In the case of CC1CCN(CCCNc2ccc(C(=O)Nc3ccc(C(F)(F)F)cc3)cc2[N+](=O)[O-])CC1, the IC50 is reported as 0.34 µM.
In the case of CCOC(=O)c1cccc(N/C(N)=N/c2nc(C)cc(NCCc3ccccc3)n2)c1, the IC50 is reported as 0.68 µM.
With COc1ccc2nccc([C@@H](O)CN3CCC(NC(=O)C(=Cc4ccc(Cl)cc4Cl)c4ccc(-c5ccccc5)cc4)CC3)c2c1 the IC50 was 0.99 µM.
For CCN(CCCN1CCCCC1)c1cc(C)nc(Nc2ccc(F)c(C(F)(F)F)c2)n1, the IC50 was 0.15 µM.
CN1CCC(NCc2cccc(-c3cccc(S(=O)(=O)NCc4ccccc4)c3)c2)CC1 gave an IC50 of 0.75 µM.
For Cc1cccc(Cn2nc(-c3ccccc3)c(N3CCCCC3)cc2=O)c1, the IC50 was 0.46 µM.
Work on CCCCCCCCOc1ccc(N2C(N)=NC(N)=NC2(C)C)cc1 yielded an IC50 of 0.5 µM.
